One test addresses T1, Ba/F3 Axl (Homo sapiens, UniProt P30530).
T1 sequence (P30530 1-894): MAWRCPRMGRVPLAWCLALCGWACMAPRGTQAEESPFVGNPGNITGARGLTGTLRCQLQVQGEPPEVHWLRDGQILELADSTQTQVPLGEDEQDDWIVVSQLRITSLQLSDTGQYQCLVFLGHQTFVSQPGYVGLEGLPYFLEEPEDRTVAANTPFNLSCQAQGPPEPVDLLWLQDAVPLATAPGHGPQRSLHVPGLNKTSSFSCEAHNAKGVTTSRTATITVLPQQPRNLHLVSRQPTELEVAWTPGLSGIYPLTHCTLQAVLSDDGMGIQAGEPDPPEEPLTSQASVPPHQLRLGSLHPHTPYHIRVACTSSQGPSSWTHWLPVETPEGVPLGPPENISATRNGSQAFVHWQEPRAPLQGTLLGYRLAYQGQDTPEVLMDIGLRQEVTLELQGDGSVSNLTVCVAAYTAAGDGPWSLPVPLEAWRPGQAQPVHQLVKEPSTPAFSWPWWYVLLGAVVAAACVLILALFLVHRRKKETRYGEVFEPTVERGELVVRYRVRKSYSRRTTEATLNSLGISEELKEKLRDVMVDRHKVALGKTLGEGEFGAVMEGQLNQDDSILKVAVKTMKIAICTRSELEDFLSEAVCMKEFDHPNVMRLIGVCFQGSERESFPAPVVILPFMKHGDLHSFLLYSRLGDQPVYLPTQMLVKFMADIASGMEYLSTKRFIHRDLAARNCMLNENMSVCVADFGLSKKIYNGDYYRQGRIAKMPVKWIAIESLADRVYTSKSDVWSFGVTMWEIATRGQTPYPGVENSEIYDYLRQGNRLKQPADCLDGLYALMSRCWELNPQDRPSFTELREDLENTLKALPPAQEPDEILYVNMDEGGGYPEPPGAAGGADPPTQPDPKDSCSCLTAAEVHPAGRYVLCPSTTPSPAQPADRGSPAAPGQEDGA
Briefly: Proliferation suppression rate using mouse pro-B cell line (Ba/F3 Axl) stably expressing Axl (CellTiter-Glo). It counts as cell-based. The settings on record: Ba/F3 Axl cells, 48 hours, read-out: IC50 value of proliferation suppression, Ba/F3 Axl. Here is the method: A 0.1 mmol/L DMSO solution of the test compound was dispensed into a 96-well plate, and a 3-fold dilution series was prepared using DMSO. DMSO solutions of test compounds, having various concentrations, were further 500-fold diluted with a RPMI1640 medium (containing 10% HI-FBS, 1% penicillin) and a diluted solution of the test compound having […] with respect to the final concentration was prepared. In each well of the 96-well plate (BD Biosciences) for measurement, 50 μL of a RPMI medium was added to the Blank group, 50 μL of a RPMI medium containing 0.2% DMSO was added to the medium group, and 50 μL of the diluted solution of the test compound was added to the test compound group, respectively. Ba/F3 Axl was diluted with a medium to have a density of 2×10^5 cells/mL to prepare a cell suspension. In each well of the 96-well plate for measurement, 50 μL each of the RPMI medium was added to the Blank group, and 50 μL each of the cell suspension to the medium group and the test compound group, respectively, and the groups were stood still at 37° C. at 5% CO2 for 48 hours. After standing still, Relative Light Unit (RLU) was measured by using CELLTITER-GLO (registered trademark) LUMINESCENT CELL VIABILITY ASSAY (Promega). The measurement was carried out according to the attached instruction. To each well, 100 μL each of light-emitting solution was added. The plate was stirred at room temperature for 3 min and then stool still at room temperature with light shielded for 10 min, and RLU was measured by using Microplate Reader (SpectraMax M5e, Molecular Devices). The average values of RLU of the Blank group and the medium group were respectively calculated, and the proliferation suppression rate of the test compound group was calculated. Proliferation suppression rate (%)={1−(RLU of test compound group−A)/(B−A)}×100 [Math. 2] A: average value of RLU of Blank group B: average value of RLU of medium group
A value of 50% inhibition rate (IC50 value) of the test compound was calculated from the inhibition curve based on the inhibition rate in each concentration of the test compound.
Background: Cellular ATP, detected with luciferase, serves as a proxy for viable cell number.

A further test addresses KDR kinase (Homo sapiens, UniProt P35968). Briefly: Evaluation of kinase selectivity (KDR kinase IC50 versus Axl IC50, in vitro test). It is filed as biochemical. To be noted: Axl selective inhibitory activity with respect to KDR kinase, ratio of IC50 values. Here is the method: Similar to Biological Example 1, values of 50% inhibition rate (IC50 value) with respect to the KDR kinase of the test compound was measured. The Axl selective inhibitory activity of the test compound with respect to KDR kinase was calculated based on the above-mentioned ratio of the IC50 values. As the test compounds, for the compounds of the present invention, the compounds of Examples 21, 42, 66, and 28 were used, and for the comparative compounds, the compound of Example 74 (Comparative compound B) and the compound of Example 92 (Comparative compound C) described in Patent Literature 5, having the following structure, were used.

Sequence of KDR kinase (P35968 20-1356): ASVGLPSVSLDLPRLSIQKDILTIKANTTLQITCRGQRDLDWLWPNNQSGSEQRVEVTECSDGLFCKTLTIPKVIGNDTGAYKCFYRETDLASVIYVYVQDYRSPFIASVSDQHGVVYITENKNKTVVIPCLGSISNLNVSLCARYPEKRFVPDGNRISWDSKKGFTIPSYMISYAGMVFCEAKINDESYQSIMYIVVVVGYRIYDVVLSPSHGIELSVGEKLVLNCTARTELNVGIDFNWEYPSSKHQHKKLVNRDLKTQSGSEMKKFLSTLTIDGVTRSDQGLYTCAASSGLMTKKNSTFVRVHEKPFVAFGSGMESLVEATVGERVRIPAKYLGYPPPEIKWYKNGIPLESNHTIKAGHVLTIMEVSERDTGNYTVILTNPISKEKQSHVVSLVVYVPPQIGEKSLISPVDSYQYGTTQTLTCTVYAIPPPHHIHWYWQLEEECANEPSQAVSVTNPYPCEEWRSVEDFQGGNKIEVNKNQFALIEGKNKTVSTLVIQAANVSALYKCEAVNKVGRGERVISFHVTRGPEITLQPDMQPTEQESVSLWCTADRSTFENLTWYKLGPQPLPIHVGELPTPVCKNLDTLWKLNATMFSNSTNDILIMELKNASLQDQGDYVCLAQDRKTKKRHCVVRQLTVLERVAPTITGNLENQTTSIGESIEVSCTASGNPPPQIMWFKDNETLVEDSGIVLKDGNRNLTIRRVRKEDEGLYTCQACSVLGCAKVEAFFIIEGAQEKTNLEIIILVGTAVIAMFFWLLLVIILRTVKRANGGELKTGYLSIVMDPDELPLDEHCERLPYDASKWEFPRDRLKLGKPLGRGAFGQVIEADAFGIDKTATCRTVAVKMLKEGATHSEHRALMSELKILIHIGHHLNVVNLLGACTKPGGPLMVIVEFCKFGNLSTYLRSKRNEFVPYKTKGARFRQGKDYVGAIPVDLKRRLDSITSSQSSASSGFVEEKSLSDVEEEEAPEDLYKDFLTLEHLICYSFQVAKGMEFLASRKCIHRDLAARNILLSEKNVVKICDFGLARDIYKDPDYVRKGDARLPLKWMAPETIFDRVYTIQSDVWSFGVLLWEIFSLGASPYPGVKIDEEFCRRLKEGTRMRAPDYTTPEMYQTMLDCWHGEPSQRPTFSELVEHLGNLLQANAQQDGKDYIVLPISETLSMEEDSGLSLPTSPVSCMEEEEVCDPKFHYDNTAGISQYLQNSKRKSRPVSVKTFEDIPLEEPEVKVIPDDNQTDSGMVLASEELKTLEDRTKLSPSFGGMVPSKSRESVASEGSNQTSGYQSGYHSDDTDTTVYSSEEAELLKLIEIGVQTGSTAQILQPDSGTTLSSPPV

For the compound `COc1cc2nccc(Oc3ccc(NC(=O)c4cc5ccncc5n(-c5ccccc5)c4=O)nc3)c2cc1OC` [Example 28, N-{5-[(6,7-dimethoxy-4-quinolinyl)oxy]-2-pyridinyl}-2-oxo-1-phenyl-1,2-dihydro-1,7-naphthyridine-3-carboxamide], the GI50 on Ba/F3 Axl was 0.99 nM. Further, at KDR kinase, the “KDR [IC50]/Ax1 [IC50]” value is given as “about 294 times”.

For `COc1cc2nccc(Oc3ccc(NC(=O)c4cc(C(C)=O)cn(-c5ccccc5)c4=O)nc3)c2cc1OC` [Example 21, 5-acetyl-N-{5-[(6,7-dimethoxy-4-quinolinyl)oxy]-2-pyridinyl}-2-oxo-1-phenyl-1,2-dihydro-3-pyridinecarboxamide], at Ba/F3 Axl, the GI50 was 0.96 nM. The “KDR [IC50]/Ax1 [IC50]” value at KDR kinase is recorded as “about 149 times”.

As to `COc1cc2nccc(Oc3ccc(NC(=O)c4c5c(cn(-c6ccccc6)c4=O)C(=O)CCC5)nc3)c2cc1OC` [Example 42, N-{5-[(6,7-dimethoxy-4-quinolinyl)oxy]-2-pyridinyl}-3,8-dioxo-2-phenyl-2,3,5,6,7,8-hexahydro-4-isoquinolinecarboxamide], the GI50 at Ba/F3 Axl stood at 4.2 nM. Also, at KDR kinase, the “KDR [IC50]/Ax1 [IC50]” value was “about 2857 times”.

Take `COc1cc2nccc(Oc3ccc(NC(=O)c4cc5c(n(-c6ccccc6)c4=O)CCCNC5=O)nc3)c2cc1OC` [Example 66, N-{5-[(6,7-dimethoxy-4-quinolinyl)oxy]-2-pyridinyl}-2,5-dioxo-1-phenyl-2,5,6,7,8,9-hexahydro-1H-pyrido[3,2-c]azepine-3-carboxamide]: the GI50 at Ba/F3 Axl came out at 5.7 nM. Besides, the “KDR [IC50]/Ax1 [IC50]” value on KDR kinase is “about 1401 times”.

Source of the values: US10208034B2, “Quinoline derivative” (ONO PHARMACEUTICAL CO., LTD., priority 2014, dated 2019).
